Experiment: Stability of Racecadotril in Beta-HPCD at 40° C., pH 3.6/4.0/4.5 (HPLC)
Type: physicochemical
Experimental: Test Methods Sample Preparation: • 1. Pipet 1 mL of Racecadotril solution into a 100 mL volumetric flask (V.F.) • 2. Dilute to volume with the same buffer used in the solution preparation. • 3. Further dilute the sample solution to about 0.1 mg/mL if necessary. […] Parameters may be modified to optimize chromatography. • The assay of Racecadotril is determined by using the external standard injected. The degradation products levels are determined by % peak area relative to the Racecadotril peak. Chromatographic Conditions (European Pharmacopoeia Racecadotril Method): [table] Gradient Table: [table] Mobil Phase A: Phosphate buffer, pH 2.5 (Buffer prep: dissolve 1 g of potassium dihydrogen phosphate in water, adjust to pH 2.5 with phosphoric acid, dilute to 1000 mL with water) Mobil Phase B: 100% Acetonitrile Stability of Racecadotril in Beta-Hydroxypropyl-Cyclodextrin (Beta-HPCD) at 40° C.

[1] = Acetate, pH 3.6, 40° C., 1 week
[2] = Acetate, pH 3.6, 40° C., 2 week
[3] = Acetate, pH 3.6, 40° C., 3 week
[4] = Acetate, pH 3.6, 40° C., 4 week
[5] = Acetate, pH 3.6, 40° C., 6 week
[6] = Acetate, pH 3.6, 40° C., 8 week
[7] = Acetate, pH 3.6, 40° C., Initial
[8] = Acetate, pH 4.0, 40° C., 1 week
[9] = Acetate, pH 4.0, 40° C., 2 week
[10] = Acetate, pH 4.0, 40° C., 3 week
[11] = Acetate, pH 4.0, 40° C., 4 week
[12] = Acetate, pH 4.0, 40° C., 6 week
[13] = Acetate, pH 4.0, 40° C., 8 week
[14] = Acetate, pH 4.0, 40° C., Initial
[15] = Acetate, pH 4.5, 40° C., 1 week
[16] = Acetate, pH 4.5, 40° C., 2 week
[17] = Acetate, pH 4.5, 40° C., 3 week
[18] = Acetate, pH 4.5, 40° C., 4 week
[19] = Acetate, pH 4.5, 40° C., 6 week
[20] = Acetate, pH 4.5, 40° C., 8 week
[21] = Acetate, pH 4.5, 40° C., Initial
[22] = Citrate, pH 3.6, 40° C., 1 week
[23] = Citrate, pH 3.6, 40° C., 2 week
[24] = Citrate, pH 3.6, 40° C., 3 week
[25] = Citrate, pH 3.6, 40° C., 4 week
[26] = Citrate, pH 3.6, 40° C., 6 week
[27] = Citrate, pH 3.6, 40° C., 8 week
[28] = Citrate, pH 3.6, 40° C., Initial
[29] = Citrate, pH 4.0, 40° C., 1 week
[30] = Citrate, pH 4.0, 40° C., 2 week
[31] = Citrate, pH 4.0, 40° C., 3 week
[32] = Citrate, pH 4.0, 40° C., 4 week
[33] = Citrate, pH 4.0, 40° C., 6 week
[34] = Citrate, pH 4.0, 40° C., 8 week
[35] = Citrate, pH 4.0, 40° C., Initial
[36] = Citrate, pH 4.5, 40° C., 1 week
[37] = Citrate, pH 4.5, 40° C., 2 week
[38] = Citrate, pH 4.5, 40° C., 3 week
[39] = Citrate, pH 4.5, 40° C., 4 week
[40] = Citrate, pH 4.5, 40° C., 6 week
[41] = Citrate, pH 4.5, 40° C., 8 week
[42] = Citrate, pH 4.5, 40° C., Initial

CC(=O)SCC(Cc1ccccc1)C(=O)NCC(=O)OCc1ccccc1 (racemic) [Racecadotril]
Benz Alcohol [1]: 0.69% | Impurity C [1]: 0.93% | Impurity G [1]: 1.17% | RAC [1]: 97.21% | Thiorphan [1]: 0.00% | Benz Alcohol [2]: 1.40% | Impurity C [2]: 1.87% | Impurity G [2]: 1.74% | RAC [2]: 94.88% | Thiorphan [2]: 0.11% | Benz Alcohol [3]: 2.13% | Impurity C [3]: 2.78% | Impurity G [3]: 1.93% | RAC [3]: 93.01% | Thiorphan [3]: 0.14% | Benz Alcohol [4]: 2.84% | Impurity C [4]: 3.56% | Impurity G [4]: 3.00% | RAC [4]: 90.15% | Thiorphan [4]: 0.30% | Benz Alcohol [5]: 4.33% | Impurity C [5]: 5.17% | Impurity G [5]: 3.82% | RAC [5]: 85.75% | Thiorphan [5]: 0.57% | Benz Alcohol [6]: 5.78% | Impurity C [6]: 6.33% | Impurity G [6]: 5.28% | RAC [6]: 80.68% | Thiorphan [6]: 1.00% | Benz Alcohol [7]: 0.00% | Impurity C [7]: 0.00% | Impurity G [7]: 0.07% | RAC [7]: 99.93% | Thiorphan [7]: 0.00% | Benz Alcohol [8]: 0.70% | Impurity C [8]: 0.93% | Impurity G [8]: 1.36% | RAC [8]: 97.01% | Thiorphan [8]: 0.00% | Benz Alcohol [9]: 1.39% | Impurity C [9]: 1.82% | Impurity G [9]: 1.70% | RAC [9]: 95.02% | Thiorphan [9]: 0.07% | Benz Alcohol [10]: 2.09% | Impurity C [10]: 2.83% | Impurity G [10]: 2.66% | RAC [10]: 92.23% | Thiorphan [10]: 0.19% | Benz Alcohol [11]: 2.84% | Impurity C [11]: 3.52% | Impurity G [11]: 3.62% | RAC [11]: 89.50% | Thiorphan [11]: 0.38% | Benz Alcohol [12]: 4.28% | Impurity C [12]: 5.16% | Impurity G [12]: 5.67% | RAC [12]: 83.98% | Thiorphan [12]: 0.71% | Benz Alcohol [13]: 5.37% | Impurity C [13]: 6.20% | Impurity G [13]: 8.46% | RAC [13]: 78.53% | Thiorphan [13]: 1.19% | Benz Alcohol [14]: 0.00% | Impurity C [14]: 0.00% | Impurity G [14]: 0.00% | RAC [14]: 100.00% | Thiorphan [14]: 0.00% | Benz Alcohol [15]: 0.02% | Impurity C [15]: 0.21% | Impurity G [15]: 3.17% | RAC [15]: 96.33% | Thiorphan [15]: 0.02% | Benz Alcohol [16]: 0.40% | Impurity C [16]: 0.40% | Impurity G [16]: 6.50% | RAC [16]: 92.61% | Thiorphan [16]: 0.04% | Benz Alcohol [17]: 0.59% | Impurity C [17]: 0.58% | Impurity G [17]: 9.43% | RAC [17]: 89.29% | Thiorphan [17]: 0.06% | Benz Alcohol [18]: 0.79% | Impurity C [18]: 0.72% | Impurity G [18]: 11.84% | RAC [18]: 86.50% | Thiorphan [18]: 0.11% | Benz Alcohol [19]: 1.14% | Impurity C [19]: 1.04% | Impurity G [19]: 17.32% | RAC [19]: 80.25% | Thiorphan [19]: 0.20% | Benz Alcohol [20]: 1.51% | Impurity C [20]: 1.25% | Impurity G [20]: 21.73% | RAC [20]: 75.06% | Thiorphan [20]: 0.36% | Benz Alcohol [21]: 0.02% | Impurity C [21]: 0.02% | Impurity G [21]: 0.21% | RAC [21]: 99.68% | Thiorphan [21]: 0.01% | Benz Alcohol [22]: 0.79% | Impurity C [22]: 0.98% | Impurity G [22]: 1.78% | RAC [22]: 96.45% | Thiorphan [22]: 0.00% | Benz Alcohol [23]: 1.72% | Impurity C [23]: 2.30% | Impurity G [23]: 3.81% | RAC [23]: 92.01% | Thiorphan [23]: 0.13% | Benz Alcohol [24]: 2.59% | Impurity C [24]: 3.36% | Impurity G [24]: 5.52% | RAC [24]: 88.22% | Thiorphan [24]: 0.31% | Benz Alcohol [25]: 3.38% | Impurity C [25]: 4.23% | Impurity G [25]: 7.38% | RAC [25]: 84.51% | Thiorphan [25]: 0.47% | Benz Alcohol [26]: 5.09% | Impurity C [26]: 6.13% | Impurity G [26]: 9.72% | RAC [26]: 77.91% | Thiorphan [26]: 1.11% | Benz Alcohol [27]: 6.64% | Impurity C [27]: 7.54% | Impurity G [27]: 12.47% | RAC [27]: 71.51% | Thiorphan [27]: 1.80% | Benz Alcohol [28]: 0.00% | Impurity C [28]: 0.00% | Impurity G [28]: 0.09% | RAC [28]: 99.91% | Thiorphan [28]: 0.00% | Benz Alcohol [29]: 0.89% | Impurity C [29]: 1.23% | Impurity G [29]: 1.95% | RAC [29]: 95.93% | Thiorphan [29]: 0.00% | Benz Alcohol [30]: 1.41% | Impurity C [30]: 1.82% | Impurity G [30]: 3.47% | RAC [30]: 93.19% | Thiorphan [30]: 0.11% | Benz Alcohol [31]: 2.36% | Impurity C [31]: 2.82% | Impurity G [31]: 4.79% | RAC [31]: 89.81% | Thiorphan [31]: 0.21% | Benz Alcohol [32]: 2.79% | Impurity C [32]: 3.43% | Impurity G [32]: 6.57% | RAC [32]: 86.78% | Thiorphan [32]: 0.40% | Benz Alcohol [33]: 4.19% | Impurity C [33]: 4.98% | Impurity G [33]: 9.24% | RAC [33]: 80.70% | Thiorphan [33]: 0.85% | Benz Alcohol [34]: 5.54% | Impurity C [34]: 6.22% | Impurity G [34]: 11.26% | RAC [34]: 75.46% | Thiorphan [34]: 1.42% | Benz Alcohol [35]: 0.00% | Impurity C [35]: 0.00% | Impurity G [35]: 0.00% | RAC [35]: 100.00% | Thiorphan [35]: 0.00% | Benz Alcohol [36]: 0.22% | Impurity C [36]: 0.18% | Impurity G [36]: 3.15% | RAC [36]: 96.44% | Thiorphan [36]: 0.01% | Benz Alcohol [37]: 0.40% | Impurity C [37]: 0.36% | Impurity G [37]: 6.04% | RAC [37]: 93.19% | Thiorphan [37]: 0.03% | Benz Alcohol [38]: 0.59% | Impurity C [38]: 0.52% | Impurity G [38]: 8.66% | RAC [38]: 90.20% | Thiorphan [38]: 0.06% | Benz Alcohol [39]: 0.79% | Impurity C [39]: 0.62% | Impurity G [39]: 11.16% | RAC [39]: 87.41% | Thiorphan [39]: 0.10% | Benz Alcohol [40]: 1.14% | Impurity C [40]: 0.90% | Impurity G [40]: 15.86% | RAC [40]: 82.05% | Thiorphan [40]: 0.17% | Benz Alcohol [41]: 1.51% | Impurity C [41]: 1.11% | Impurity G [41]: 19.95% | RAC [41]: 77.34% | Thiorphan [41]: 0.29% | Benz Alcohol [42]: 0.02% | Impurity C [42]: 0.01% | Impurity G [42]: 0.19% | RAC [42]: 99.71% | Thiorphan [42]: 0.01%

From patent US9114171B2, “Racecadotril liquid compositions” (McNeil-PPC, Inc., priority 2012, dated 2015)
